Some test systems named below: HOP-92; NCI-H460; BT-549; Hs-578T; OVCAR-8; M14; OVCAR-4; NCI-H23; KM12; SK-MEL-5; NCI-H226; T47D; UACC-62; UO-31; ACHN; MOLT-4; TK-10; A498; NCI-H522; SR.
Experiment in all cases: growth of human tumour cells (NCI), 48 h

Molecules are shown by their SMILES.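 The compound was tested at five concentrations on cells cultured in 96-well plates, with a 48-hour exposure period. The concentration for 50% growth inhibition is given as GI50.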 Active and inactive are the calls of the source. Cut-off read from the data, not from the text of the source: active = GI50 up to about 1.1 µM and inactive = higher. A value given as a limit tells only on which side of the number the result lay.

The record followed here is ChEMBL document CHEMBL1201862, “PubChem BioAssay data set” (2004).

On to `COc1cc(C=C2C(=O)NC(=S)NC2=O)cc(OC)c1OC`, for which the GI50 in the experiment with HOP-92, in the experiment with NCI-H460, with BT-549, in the experiment on Hs-578T, in the experiment on OVCAR-8 and with M14 was > 100 µM (inactive) throughout. Also, the GI50 in the experiment on OVCAR-4, in the experiment on NCI-H23, in the experiment with KM12, in the experiment on SK-MEL-5, in the experiment with NCI-H226 and with T47D was > 100 µM (inactive) each time. Also, the GI50 in the experiment on UACC-62, with UO-31, in the experiment on ACHN, in the experiment on MOLT-4 and in the experiment with TK-10 was > 100 µM (inactive) throughout.

Consider `CC(C)(CO)NC(=O)Nc1c(C(F)(F)F)cc(-c2ccccc2)[nH]c1=O`, for which the GI50 in the experiment on HOP-92, with NCI-H460, in the experiment with BT-549, in the experiment with Hs-578T, in the experiment with OVCAR-8 and in the experiment with M14 was > 100 µM (inactive) in each case. Moreover, the GI50 with A498, in the experiment with NCI-H23, in the experiment with KM12, in the experiment with SK-MEL-5, with NCI-H226 and in the experiment on T47D was > 100 µM (inactive) in each case. For the same compound, the GI50 in the experiment with UACC-62, with UO-31, with ACHN, with NCI-H522, with MOLT-4 and in the experiment on TK-10 was > 100 µM (inactive) throughout.

`O=C(/C=N/O)Nc1cc(Cl)c(Cl)cc1Cl`: the GI50 is 26.9 µM (inactive) in the experiment with HOP-92; 28.4 µM (inactive) in the experiment on NCI-H460; 27.2 µM (inactive) in the experiment on BT-549; 29.2 µM (inactive) in the experiment with Hs-578T; 23.8 µM (inactive) in the experiment on OVCAR-8; 34.4 µM (inactive) in the experiment with M14. Also, the GI50 was 26.1 µM (inactive) with OVCAR-4; 16.6 µM (inactive) in the experiment on A498; 29.6 µM (inactive) with NCI-H23; 26.5 µM (inactive) in the experiment with KM12; 17.7 µM (inactive) with SK-MEL-5; 16.5 µM (inactive) with T47D. The GI50 in the experiment on UACC-62 was 25.9 µM (inactive); with UO-31 it was 41.9 µM (inactive); in the experiment with ACHN it was 29.9 µM (inactive); in the experiment with NCI-H522, 24.9 µM (inactive); with MOLT-4, 15.1 µM (inactive); in the experiment with TK-10, 30.4 µM (inactive).

Consider `Cc1[nH]n(-c2nc(O)c(C)c(=O)[nH]2)c(=O)c1CCO`, for which the GI50 in the experiment on HOP-92, with NCI-H460, with BT-549, with Hs-578T, with OVCAR-8 and with M14 was > 100 µM (inactive) throughout. For the same compound, the GI50 with OVCAR-4, in the experiment with A498, in the experiment with NCI-H23, in the experiment on KM12, in the experiment with SK-MEL-5 and in the experiment with NCI-H226 was > 100 µM (inactive) throughout. For the same compound, the GI50 in the experiment on T47D, in the experiment on UACC-62, with UO-31, with ACHN, in the experiment with NCI-H522 and in the experiment on MOLT-4 was > 100 µM (inactive) throughout. In the experiment on TK-10, the GI50 is > 100 µM (inactive).

In the case of `CCCNC(=O)c1cc(NC(=O)c2cc(NC(=O)/C=C/c3ccccc3)c(OC)c(OC)c2)c(OC)c(OC)c1`, the GI50 in the experiment on NCI-H460 is 11.8 µM (inactive); with BT-549, 17.8 µM (inactive); in the experiment with Hs-578T, 1.92 µM (inactive); with OVCAR-8, 4.51 µM (inactive); with M14 it was 38.4 µM (inactive); in the experiment with SR, 48.9 µM (inactive). Further, the GI50 in the experiment on OVCAR-4 was 2.54 µM (inactive); with A498, 11.4 µM (inactive); in the experiment with NCI-H23, 11.4 µM (inactive); in the experiment with KM12, 8.28 µM (inactive); with NCI-H226, 0.0216 µM (active); in the experiment on UACC-62, 0.148 µM (active). The GI50 in the experiment on UO-31 was 5.6 µM (inactive); in the experiment on ACHN it was 7.94 µM (inactive); in the experiment on NCI-H522, 4.72 µM (inactive); in the experiment on MOLT-4 it was > 100 µM (inactive); in the experiment on TK-10, 14.8 µM (inactive).

As to `CCN1C(=O)C(=C/C=C/c2ccc([N+](=O)[O-])cc2)C(=O)N(CC)C1=S`, the GI50 with HOP-92 is 18.3 µM (inactive); in the experiment with NCI-H460 it was 61.8 µM (inactive); in the experiment with BT-549, 16.5 µM (inactive); in the experiment on Hs-578T, 15.3 µM (inactive); in the experiment on OVCAR-8, 20.9 µM (inactive); with M14, 29 µM (inactive). Also, the GI50 is 33 µM (inactive) in the experiment with OVCAR-4; 18.2 µM (inactive) in the experiment with NCI-H23; 22.3 µM (inactive) in the experiment with KM12; 20.8 µM (inactive) in the experiment on SK-MEL-5; 25.4 µM (inactive) in the experiment with NCI-H226; > 100 µM (inactive) with T47D. Also, the GI50 is 18.9 µM (inactive) in the experiment with UACC-62; 18.8 µM (inactive) in the experiment with UO-31; 18.1 µM (inactive) in the experiment with ACHN; 29.6 µM (inactive) in the experiment on MOLT-4; 19.4 µM (inactive) in the experiment on TK-10.

As for `CC(C)C1/C(=N/O)CC(c2ccccc2)N(N=O)C1c1ccccc1` (centres undefined), the GI50 in the experiment with HOP-92 was 33.7 µM (inactive); with NCI-H460, 24.7 µM (inactive); in the experiment on BT-549 it was 50.2 µM (inactive); in the experiment with Hs-578T, 17.5 µM (inactive); with OVCAR-8, 57 µM (inactive); in the experiment on M14, 40.7 µM (inactive). The GI50 was 22.8 µM (inactive) in the experiment on OVCAR-4; 47.1 µM (inactive) in the experiment on NCI-H23; 31.8 µM (inactive) in the experiment with KM12; 30.2 µM (inactive) in the experiment with SK-MEL-5; 37.1 µM (inactive) in the experiment on NCI-H226; 39.6 µM (inactive) with T47D. Besides, the GI50 in the experiment on UACC-62 was 19.7 µM (inactive); in the experiment on UO-31, 33.3 µM (inactive); with ACHN it was 36.4 µM (inactive); in the experiment with NCI-H522 it was 37 µM (inactive); with MOLT-4, 32.3 µM (inactive); with TK-10 it was 62.2 µM (inactive).

As to `CCCN1C(=O)CC(C)N(Cc2ccccc2Cl)C1=S` (centres undefined), the GI50 in the experiment with HOP-92 was 24.2 µM (inactive); with NCI-H460, 31 µM (inactive); with BT-549, 24.4 µM (inactive); with Hs-578T, 30.8 µM (inactive); with OVCAR-8, 27.2 µM (inactive); with M14 it was 25.7 µM (inactive). For the same compound, the GI50 was 43.7 µM (inactive) in the experiment on OVCAR-4; 14.2 µM (inactive) in the experiment with A498; 23.5 µM (inactive) with NCI-H23; 28.9 µM (inactive) in the experiment with KM12; 17.8 µM (inactive) in the experiment on SK-MEL-5; 10.6 µM (inactive) with T47D. The GI50 was 19.1 µM (inactive) in the experiment with UACC-62; 24.5 µM (inactive) in the experiment with ACHN; 21.1 µM (inactive) in the experiment with NCI-H522; 28.2 µM (inactive) with MOLT-4; 25 µM (inactive) in the experiment on TK-10.

`CC1(C)CC(=O)c2c([nH]c(=S)c(C#N)c2-c2ccc(Br)cc2)C1`: the GI50 was 17.3 µM (inactive) with HOP-92; 40.7 µM (inactive) with NCI-H460; > 100 µM (inactive) in the experiment on BT-549; 29 µM (inactive) with Hs-578T; 49.9 µM (inactive) in the experiment with OVCAR-8; 43 µM (inactive) in the experiment on M14. The GI50 in the experiment with SR is 22.8 µM (inactive); in the experiment with OVCAR-4 it was 34.4 µM (inactive); with A498, 54 µM (inactive); in the experiment with NCI-H23, 51.1 µM (inactive); in the experiment on SK-MEL-5, 46.9 µM (inactive); in the experiment on NCI-H226, 46.8 µM (inactive). Besides, the GI50 in the experiment with UACC-62 is 32.7 µM (inactive); in the experiment on UO-31 it was 45.9 µM (inactive); with ACHN it was 66.1 µM (inactive); with NCI-H522, 24.2 µM (inactive); in the experiment on TK-10, 81.8 µM (inactive).

Turning to `O=C1NC(=S)NC1C(Cc1ccccc1)c1ccco1` (centres undefined), the GI50 is > 100 µM (inactive) in the experiment with HOP-92; > 100 µM (inactive) in the experiment with NCI-H460; > 100 µM (inactive) with Hs-578T; > 100 µM (inactive) in the experiment on OVCAR-8; > 100 µM (inactive) in the experiment with M14; 75.3 µM (inactive) with SR. Also, the GI50 in the experiment on OVCAR-4, in the experiment with A498, with NCI-H23, in the experiment on KM12, with SK-MEL-5 and in the experiment with NCI-H226 was > 100 µM (inactive) in each case. Further, the GI50 is > 100 µM (inactive) with T47D; > 100 µM (inactive) in the experiment on UO-31; > 100 µM (inactive) with ACHN; > 100 µM (inactive) in the experiment with NCI-H522; 81.7 µM (inactive) in the experiment with MOLT-4; > 100 µM (inactive) in the experiment with TK-10.

On to `CC1=NNC(=O)C1C1CC(c2c[nH]c3ccccc23)=NN=C1Cl` (centres undefined), for which the GI50 was > 100 µM (inactive) with HOP-92; 34.6 µM (inactive) with NCI-H460; 37 µM (inactive) with BT-549; 61.8 µM (inactive) with Hs-578T; > 100 µM (inactive) with OVCAR-8; 53.5 µM (inactive) in the experiment on M14. The GI50 is > 100 µM (inactive) with A498; 39.4 µM (inactive) in the experiment with NCI-H23; 21.9 µM (inactive) in the experiment on KM12; 42.8 µM (inactive) in the experiment with SK-MEL-5; 74.1 µM (inactive) in the experiment with NCI-H226; 36.2 µM (inactive) in the experiment on T47D. Besides, the GI50 is 85.7 µM (inactive) in the experiment with UACC-62; 31.2 µM (inactive) in the experiment with UO-31; 86.1 µM (inactive) in the experiment with ACHN; 45.8 µM (inactive) in the experiment with NCI-H522; 24.2 µM (inactive) in the experiment on MOLT-4; > 100 µM (inactive) in the experiment with TK-10.
